ChEMBL document CHEMBL1152929, “Dapholdhamines A-D, alkaloids from Daphniphyllum oldhami” (J Nat Prod, 2009)
Active and inactive are the calls of the source.

Columns and labels:
Format in all cases: functional, cell-based
KB = assay: Cytotoxicity against human KB cells
K562 = assay: Cytotoxicity against human K562 cells
HT-29 = assay: Cytotoxicity against human HT-29 cells
HCT-116 = assay: Cytotoxicity against human HCT116 cells
SW480 = assay: Cytotoxicity against human SW480 cells
HL-60 = assay: Cytotoxicity against human HL60 cells

Measured: Activity

CC(C)[C@H]1CC[C@@]2(C)[C@H]3C[C@@H]4[C@H]5CCC[C@@]4(O)[C@@]2(CCC(=O)O)[C@@H]1N5C3
inactive: KB | K562 | HT-29 | HCT-116 | SW480 | HL-60

C[C@@H]1CN2C3[C@@H]4CC[C@@]35CCC[C@H]5[C@@]3(CCC(=O)O)[C@H]2[C@]1(O)CC[C@@]43C
inactive: KB | K562 | HT-29 | HCT-116 | SW480 | HL-60

COC(=O)c1c2ccoc3c-2c2c1C(=O)[C@]1(O)C[C@@]4(O)N(C[C@@H](CC3)[C@@]24C)C[C@H]1C
inactive: KB | K562 | HT-29 | HCT-116 | SW480 | HL-60

COC(=O)c1c2ccoc3c-2c2c1C(=O)[C@]1(O)CC4(CC(C)=O)N(C[C@@H](CC3)[C@@]24C)C[C@H]1C
inactive: KB | K562 | HT-29 | HCT-116 | SW480 | HL-60
